# From US20060239926A1, “Specific high-relaxivity compounds” (GUERBET, priority 2003, published 2006)
# Columns and labels:
# human MMP-1 [1] = biological target: T1, human MMP-1 (Homo sapiens, UniProt P03956); test: In vitro MMP-inhibiting activity (fluorimetry), MMP-1; format: biochemical
# T1 sequence (P03956 100-469): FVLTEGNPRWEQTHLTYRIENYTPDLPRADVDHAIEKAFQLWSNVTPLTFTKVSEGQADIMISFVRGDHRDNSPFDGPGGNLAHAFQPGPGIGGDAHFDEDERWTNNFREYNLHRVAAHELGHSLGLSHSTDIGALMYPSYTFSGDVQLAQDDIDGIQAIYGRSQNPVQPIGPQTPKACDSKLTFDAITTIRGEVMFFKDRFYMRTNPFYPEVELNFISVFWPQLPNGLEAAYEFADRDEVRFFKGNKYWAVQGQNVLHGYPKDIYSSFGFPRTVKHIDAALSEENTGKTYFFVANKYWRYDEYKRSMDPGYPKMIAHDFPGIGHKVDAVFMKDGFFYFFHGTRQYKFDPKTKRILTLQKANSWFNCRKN
# Description: The inventors assayed the in vitro activity of the P947 and P967 gadolinium-chelate contrast products functionalized with matrix metalloproteases inhibitors (MMPs), on human MMP-1 and MMP-3. As regards the affinity of the biovector component, on the receptor, the controls were two peptides:
# More precisely, the in vitro MMP-inhibiting activity was evaluated in the following way: • 1. Incubation of the test product in the presence of the MMP enzyme, at 37° C., for a defined period of time, and then measurement of the fluorescence of the medium (t=0). • 2. Induction of the enzyme reaction by addition of the substrate to (which becomes fluorescent when it is cleaved by the enzyme), and then incubation at 37° C. for 40 min. A second measurement of fluorescence is then taken (t=40). • 3. The activity of the MMP enzyme is determined by subtraction of the signal measured by fluorimetry: (t=40)-(t=0). • 4. The results are expressed as percentage inhibition of the activity of the control enzyme. • 5. The standard inhibitory product is TIMP-1.
# The products were tested in duplicate, at 10^−5, 10^−7 and 10^−9 M with respect to peptides. Those which contain no peptides were treated in a manner similar to the corresponding functionalized contrast products.
# human MMP-1 [2] = biological target: T1, human MMP-1; conditions: value of the peptide component, not of the Gd conjugate, read-out: IC50 OF THE PEPTIDE (LITERATURE); cited from earlier work
# MMP-2 [3] = biological target: T2, MMP-2 (Homo sapiens, UniProt P08253); conditions: read-out: IC50 on MMP-2 (literature); cited from earlier work
# T2 sequence (P08253 110-660): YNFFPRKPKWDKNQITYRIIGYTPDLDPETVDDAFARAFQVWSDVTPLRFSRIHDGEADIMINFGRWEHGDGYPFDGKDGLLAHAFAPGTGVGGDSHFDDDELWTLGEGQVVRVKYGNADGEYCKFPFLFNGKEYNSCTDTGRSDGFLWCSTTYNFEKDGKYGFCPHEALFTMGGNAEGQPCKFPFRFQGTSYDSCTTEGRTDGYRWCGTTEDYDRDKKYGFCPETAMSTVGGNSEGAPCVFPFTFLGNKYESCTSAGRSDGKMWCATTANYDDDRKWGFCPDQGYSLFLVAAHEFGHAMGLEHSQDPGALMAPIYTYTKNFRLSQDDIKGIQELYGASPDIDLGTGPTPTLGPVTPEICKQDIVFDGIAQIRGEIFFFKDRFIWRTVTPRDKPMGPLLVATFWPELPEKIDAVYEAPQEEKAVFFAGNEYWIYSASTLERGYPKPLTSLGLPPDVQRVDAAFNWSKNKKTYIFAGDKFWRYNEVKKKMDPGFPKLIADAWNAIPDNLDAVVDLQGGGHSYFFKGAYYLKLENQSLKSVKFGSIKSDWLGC
# MMP-2 [4] = biological target: T2, MMP-2; test: In vitro MMP-inhibiting activity (fluorimetry), MMP-2; format: biochemical
# Description: The inventors also tested the in vitro activity in order to evaluate the inhibitory activity of P947 and of the tetrapeptide on MMP-2, a gelatinase A expressed constitutively in the vascular wall and overexpressed in the case of inflammation.
# Control: commercial tetrapeptide (called peptide B in the study): 4-Abz-Gly-Pro-Dleu-Dala-NHOH (Bachem); inhibitor of MMP-1, MMP-2 and MMP-3.
# The detailed protocol is as follows for MMP2s: the product tested is added to a 50 mM. Tris-HCl buffer (pH 7.5) containing 150 mM NaCl, 10 mM […], 0.02% NaN3, 0.05% Brij®35 and 0.35 μM MMP-2 activated by incubation for 120 minutes at 37° C. with 6.67 mM APMA. The fluorescence intensity is measured after preincubation for 30 minutes at 37° C., at lambda ex=340 nm and lambda em=405 nm. The enzyme reaction is initiated by adding 6 μM NFF-2, with subsequent incubation for 90 minutes at 37° C.
# [5] = test system: macrophages located in the plaques; test: Ex vivo distribution of PS-NBD in atheroma plaques of ApoE-KO mice; format: cell-based
# Description: For this, samples of heart comprising valves and aortic arch and also the iliac bifurcation are incubated in the presence of PS-NBD.
# [6] = test system: primary macrophages from WHHL rabbits; test: Ex vivo incubation of WHHL rabbit macrophages/aortic tissues with PS-NBD, fluorescence microscopy; format: cell-based; conditions: incubated 18 h ex vivo; 35 μM
# Description: In fact macrophages were isolated from aortic arch and mesenteric lymph node samples, and then incubated for 18 h ex vivo in the presence of PS-NBD. […] More precisely, the rabbit was subjected to exsanguinating perfusion with heparinized newborn calf serum before being sacrificed. The aortic arch, the thoracic aorta and the abdominal aorta were removed. The tissue removed were incubated for 18 hours in cell culture medium to which PS-NBD had been added and were then mounted in frozen blocks in order for histological sections to be cut. Certain sections were observed by fluorescence microscopy and others were immunolabelled using an anti-rabbit macrophage antibody (RAM 11).
# • Incubation of the samples at 37° C. in 24-well plates in the presence of PS-NBD at 35 μM for 18 hours. • 2 rinses of the arteries in PBS. • Embedding of each piece of aorta in a freezing gel. • Cryofixation. • Storage of the components in a −80° C. freezer. Immunohistochemistry (HEGP) • The mouse primary antibody Ram 11 is used at a 1/100 dilution. • The secondary antibody (goat anti-mouse) is coupled to alkaline phosphatase. • The chromogen used is ADC (supplied by AbCys). • Fast re counterstaining is carried out.
# THP-1 cells = test: Uptake of PS-NBD by THP-1 cells, flow cytometry; format: cell-based, human; conditions: PS-NBD range 13, 32 and 64 μM; 24 hours
# Description: In vitro validation was performed by comparing the rate of uptake by activated macrophages versus non-activated macrophages (activated THP-1 cells are positive for the PS receptor). […] PS-NBD is a phosphatidylserine comprising only one fatty chain, the other arm linked to the serine head supporting the fluorescence marker NBD.
# The THP-1 cell line is a human monocyte line which, after activation, differentiates into macrophages and expresses the phosphatidylserine receptor. These cells were cultured in the presence of phosphatidylserine-NBD.
# Protocol with Flow Cytometry • 2 ml of a suspension of THP-1 at 10^6 C/ml are seeded in a 6-well plate. • The THP-1 are activated for 24 hours with 50 nmol/l of PMA. • […] of each of the dilutions (from the solution at 6.25 mmol/l) are incubated for 24 hours. • The excess product is suctioned off. • The cell layer is washed with 1 ml of RPMI without phenol red. • The excess is suctioned off. • The cells are resuspended in 1 ml of PBS (detachment of the cells using a flow of medium over the layer then scraping of the cells which have not detached, using a scraper). • The cells are kept in the dark at 4° C. while awaiting reading. • The fluorescence is read in FL1 at 525 nm by flow cytometry.
# PS-NBD range tested: 13, 32 and 64 μM
# Groups tested: THP-1/PMA, THP-1/PS-NBD at 5 μM.
Compound,SIGNIFICANT INHIBITORY EFFECT (human MMP-1 [1]; concentration of peptide 10^−5M),"CONCENTRATION OF PEPTIDE (with significant inhibitory effect) (human MMP-1 [1]; tested at 10^−5, 10^−7 and 10^−9 M with respect to peptides)",IC50 (human MMP-1 [2]),IC50 (MMP-2 [3]),concentration from which significant inhibitory activity on MMP-2 (MMP-2 [4]),interaction with macrophages in atheroma plaques [5],intracellular accumulation in macrophages [6],"ratio of the negative control to the highest concentration (fluorescence, FL1 525 nm) (THP-1 cells)"
4-Abz-Gly-Pro-Dleu-Dala-NHOH [PEPTIDE B],46%,10^−5M,1 µM,30 µM,≥ 10^−5 M,–,–,–
CCCCCCCCCCCCCCCC(=O)OC[C@H](COP(=O)(O)OC[C@H](N)C(=O)O)OC(=O)CCCCCNc1ccc([N+](=O)[O-])c2nonc12 [PS-NBD],–,–,–,–,–,interacts specifically with the macrophages located in the plaques,large intracellular accumulation,> 50
